Reference: ChEMBL document CHEMBL3739415, “Synthesis of functionalized new conjugates of batracylin with tuftsin/retro-tuftsin derivatives and their biological evaluation” (Eur J Med Chem, 2015)
Calls of active or inactive are those of the source. The rule behind the calls is not given here. Non-standard residues stand in square brackets, D forms with d. Residues, ends and D or L forms follow the SMILES beside them. *: point of attachment. Batracylin(8-NH) = O=C1c2ccccc2C2=Nc3ccc(N*)cc3CN12; Arg(NO2) = N=C(NCCC[C@H](N)C(=O)O)N[N+](=O)[O-]

What was measured:
[1] = Cytotoxicity against human HL60 cells after 120 hrs by MTT assay; format: functional, cell-based; conditions: HL-60, 120 h
[2] = tested on: A549; assay: Cytotoxicity against human A549 cells after 120 hrs by MTT assay; format: functional, cell-based; conditions: A549, 120 h
[3] = molecular target: DNA topoisomerase 2-alpha (Homo sapiens) (UniProt P11388); assay: Inhibition of human topoisomerase-2alpha-mediated relaxation of supercoiled plasmid pBR322 DNA after 30 mins by ethidium bromide staining
[4] = molecular target: T1, DNA topoisomerase 1 (Homo sapiens) (UniProt P11387); assay: Inhibition of human topoisomerase-1-mediated relaxation of supercoiled plasmid pBR322 DNA at 1 to 100 uM after 30 mins by ethidium bromide staining
T1 sequence (whole entry): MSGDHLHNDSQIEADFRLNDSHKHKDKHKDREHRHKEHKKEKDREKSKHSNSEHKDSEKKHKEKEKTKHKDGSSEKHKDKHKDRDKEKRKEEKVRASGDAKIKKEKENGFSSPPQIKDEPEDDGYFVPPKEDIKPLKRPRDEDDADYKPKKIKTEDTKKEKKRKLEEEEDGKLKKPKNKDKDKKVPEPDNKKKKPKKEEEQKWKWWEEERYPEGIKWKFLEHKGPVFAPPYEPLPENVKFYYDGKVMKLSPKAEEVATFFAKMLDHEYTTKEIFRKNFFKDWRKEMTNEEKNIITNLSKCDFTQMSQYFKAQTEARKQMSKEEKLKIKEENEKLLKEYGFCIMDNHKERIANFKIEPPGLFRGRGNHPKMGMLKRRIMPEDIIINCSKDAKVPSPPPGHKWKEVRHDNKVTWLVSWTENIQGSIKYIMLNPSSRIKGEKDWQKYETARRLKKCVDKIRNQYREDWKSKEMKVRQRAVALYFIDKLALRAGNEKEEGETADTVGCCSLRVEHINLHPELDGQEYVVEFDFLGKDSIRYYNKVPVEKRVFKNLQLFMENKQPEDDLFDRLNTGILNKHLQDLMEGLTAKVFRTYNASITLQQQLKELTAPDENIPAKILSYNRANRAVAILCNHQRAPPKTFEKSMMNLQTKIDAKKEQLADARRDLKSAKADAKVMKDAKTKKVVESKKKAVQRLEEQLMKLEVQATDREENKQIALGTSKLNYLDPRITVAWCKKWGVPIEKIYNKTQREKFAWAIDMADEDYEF

[5] = tested on: A549; assay: Induction of DNA damage in human A549 cells assessed as phosphorylation of H2AX histone at IC90 after 3 hrs by fluorescence microscopy; format: functional, cell-based
[6] = tested on: A549; assay: Induction of apoptosis in human A549 cells assessed as increase of debris fraction at IC90 up to 120 hrs using Hoechst-33342 staining by fluorescent microscope analysis relative to BAT; format: functional
[7] = Cell cycle arrest in human HL60 cells assessed as abnormal mitotic figures at IC90 after 24 to 120 hrs using propidium iodide staining by flow cytometry analysis; format: functional, cell-based; conditions: HL-60
[8] = tested on: A549; assay: Induction of apoptosis in human A549 cells assessed as change in nuclear and cellular morphology at IC90 up to 120 hrs using Hoechst-33342 staining by fluorescent microscope analysis; format: functional, cell-based
[9] = tested on: HL-60; assay: Induction of apoptosis in human HL60 cells assessed as fraction of polyploid cells at IC90 up to 120 hrs using Hoechst-33342 staining by fluorescent microscope analysis relative to BAT; format: functional, cell-based
[10] = tested on: HL-60; assay: Induction of apoptosis in human HL60 cells assessed as increase of debris fraction at IC90 up to 120 hrs using Hoechst-33342 staining by fluorescent microscope analysis relative to BAT; format: functional, cell-based
[11] = tested on: A549; assay: Cell cycle arrest in human A549 cells assessed as accumulation at G2/M phase at IC90 after 24 hrs using propidium iodide staining by flow cytometry analysis; format: functional, cell-based
[12] = tested on: A549; assay: Cell cycle arrest in human A549 cells assessed as accumulation at G2/M phase at IC90 after 120 hrs using propidium iodide staining by flow cytometry analysis; format: functional, cell-based
[13] = tested on: HL-60; assay: Induction of apoptosis in human HL60 cells assessed as micronucleated cells at IC90 up to 120 hrs using Hoechst-33342 staining by fluorescent microscope analysis relative to BAT; format: functional, cell-based
[14] = Cell cycle arrest in human HL60 cells assessed as accumulation at G2/M phase at IC90 after 24 to 120 hrs using propidium iodide staining by flow cytometry analysis; format: functional, cell-based; conditions: HL-60
[15] = tested on: A549; assay: Ratio of BAT IC50 to compound IC50 for human A549 cells after 120 hrs by MTT assay; format: functional
[16] = tested on: HL-60; assay: Ratio of BAT IC50 to compound IC50 for human HL60 cells after 120 hrs by MTT assay; format: functional
[17] = tested on: HT-29; assay: Cytotoxicity against human HT-29 cells after 120 hrs by MTT assay; format: functional, cell-based; conditions: HT-29, 120 h
[18] = Cytotoxicity against mouse WEHI1640 cells after 120 hrs by MTT assay; format: functional, cell-based; conditions: WEHI1640, 120 h
[19] = Cytotoxicity against human HCT116 cells after 120 hrs by MTT assay; format: functional, cell-based; conditions: HCT-116, 120 h
[20] = Cytotoxicity against mouse NIH/3T3 cells after 120 hrs by MTT assay; format: functional, cell-based; conditions: NIH3T3, 120 h
[21] = tested on: LNCaP; assay: Cytotoxicity against human LNCAP cells after 120 hrs by MTT assay; format: functional, cell-based
[22] = tested on: MCF7; assay: Cytotoxicity against human MCF7 cells after 120 hrs by MTT assay; format: functional, cell-based; conditions: MCF7, 120 h
[23] = tested on: L1210; assay: Cytotoxicity against mouse L1210 cells after 120 hrs by MTT assay; format: functional, cell-based; conditions: L1210, 120 h
[24] = tested on: P388; assay: Cytotoxicity against mouse P388 cells after 120 hrs by MTT assay; format: functional, cell-based; conditions: P388, 120 h

Sequence of DNA topoisomerase 2-alpha (Homo sapiens) (P11388 whole entry): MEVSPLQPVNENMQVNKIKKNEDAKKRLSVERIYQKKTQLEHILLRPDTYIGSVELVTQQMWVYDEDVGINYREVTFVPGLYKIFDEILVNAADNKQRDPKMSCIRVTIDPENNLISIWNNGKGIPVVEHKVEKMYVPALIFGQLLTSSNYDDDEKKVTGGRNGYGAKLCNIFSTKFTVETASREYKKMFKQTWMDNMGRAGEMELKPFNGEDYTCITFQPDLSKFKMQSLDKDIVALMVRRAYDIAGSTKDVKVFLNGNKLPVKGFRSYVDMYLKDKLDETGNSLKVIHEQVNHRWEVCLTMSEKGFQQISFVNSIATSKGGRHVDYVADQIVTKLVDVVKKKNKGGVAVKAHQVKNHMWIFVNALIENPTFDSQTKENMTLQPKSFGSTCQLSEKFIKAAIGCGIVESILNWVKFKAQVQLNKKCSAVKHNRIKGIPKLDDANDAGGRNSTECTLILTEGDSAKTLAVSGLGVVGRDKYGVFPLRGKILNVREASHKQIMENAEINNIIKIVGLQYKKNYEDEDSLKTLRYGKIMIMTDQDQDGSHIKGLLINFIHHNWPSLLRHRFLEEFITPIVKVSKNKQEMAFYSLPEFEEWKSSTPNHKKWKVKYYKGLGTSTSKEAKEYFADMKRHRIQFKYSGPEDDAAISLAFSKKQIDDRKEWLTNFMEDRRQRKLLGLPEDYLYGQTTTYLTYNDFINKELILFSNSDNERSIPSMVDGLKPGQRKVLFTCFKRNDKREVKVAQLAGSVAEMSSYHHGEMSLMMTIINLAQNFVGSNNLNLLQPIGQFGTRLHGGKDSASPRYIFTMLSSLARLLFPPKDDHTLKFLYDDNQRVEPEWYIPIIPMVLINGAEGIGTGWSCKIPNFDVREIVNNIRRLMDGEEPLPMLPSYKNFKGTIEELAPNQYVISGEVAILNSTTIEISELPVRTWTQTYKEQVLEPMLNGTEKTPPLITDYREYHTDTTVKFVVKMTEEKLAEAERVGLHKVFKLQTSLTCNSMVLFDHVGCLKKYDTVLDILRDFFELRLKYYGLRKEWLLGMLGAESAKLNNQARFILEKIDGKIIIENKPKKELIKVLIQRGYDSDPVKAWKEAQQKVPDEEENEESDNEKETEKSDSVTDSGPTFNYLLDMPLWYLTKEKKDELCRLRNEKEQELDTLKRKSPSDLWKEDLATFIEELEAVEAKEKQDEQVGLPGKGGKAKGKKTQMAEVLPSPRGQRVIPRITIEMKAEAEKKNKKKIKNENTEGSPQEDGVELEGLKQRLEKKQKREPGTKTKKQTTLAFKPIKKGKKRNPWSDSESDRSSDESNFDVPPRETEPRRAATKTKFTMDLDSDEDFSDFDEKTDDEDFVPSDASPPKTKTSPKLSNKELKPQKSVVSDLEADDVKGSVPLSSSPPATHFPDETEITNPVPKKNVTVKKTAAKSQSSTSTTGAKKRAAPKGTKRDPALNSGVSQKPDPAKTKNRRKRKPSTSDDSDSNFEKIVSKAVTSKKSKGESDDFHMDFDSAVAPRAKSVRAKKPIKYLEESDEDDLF

`C[C@H](N)C(=O)NCCCC[C@H](NC(=O)[C@@H](N)[C@@H](C)O)C(=O)N1CCC[C@H]1C(=O)N[C@@H](CCCNC(=N)N[N+](=O)[O-])C(=O)Nc1ccc2c(c1)CN1C(=O)c3ccccc3C1=N2` (H-TK(Ala)P[Arg(NO2)]-{Batracylin(8-NH)}) showed an IC50 [1] of 19.6 µM and an IC50 [2] of 5.9 µM.

With `C[C@@H](O)[C@H](N)C(=O)N[C@@H](CCCCNC(=O)CN)C(=O)N1CCC[C@H]1C(=O)N[C@@H](CCCNC(=N)N[N+](=O)[O-])C(=O)Nc1ccc2c(c1)CN1C(=O)c3ccccc3C1=N2` (H-TK(Gly)P[Arg(NO2)]-{Batracylin(8-NH)}) the IC50 [1] was > 100 µM and the IC50 [2] was > 100 µM.

For `CC[C@H](C)[C@H](N)C(=O)NCCCC[C@H](NC(=O)[C@@H](N)[C@@H](C)O)C(=O)N1CCC[C@H]1C(=O)N[C@@H](CCCNC(=N)N[N+](=O)[O-])C(=O)Nc1ccc2c(c1)CN1C(=O)c3ccccc3C1=N2` (H-TK(Ile)P[Arg(NO2)]-{Batracylin(8-NH)}), the IC50 [1] was 15.4 µM, the IC50 [2] was 17.4 µM and the inhibition [3] was “Dose-dependent effect”. For the same compound, the inhibition [4] was “inactive”.

For `CC(C)C[C@H](N)C(=O)NCCCC[C@H](NC(=O)[C@@H](N)[C@@H](C)O)C(=O)N1CCC[C@H]1C(=O)N[C@@H](CCCNC(=N)N[N+](=O)[O-])C(=O)Nc1ccc2c(c1)CN1C(=O)c3ccccc3C1=N2` (H-TK(Leu)P[Arg(NO2)]-{Batracylin(8-NH)}), the IC50 [1] was 83.7 µM, the IC50 [2] was > 100 µM and the inhibition [3] was “Dose-dependent effect”. The inhibition [4] was “inactive”.

With `CC(C)[C@H](N)C(=O)NCCCC[C@H](NC(=O)[C@@H](N)[C@@H](C)O)C(=O)N1CCC[C@H]1C(=O)N[C@@H](CCCNC(=N)N[N+](=O)[O-])C(=O)Nc1ccc2c(c1)CN1C(=O)c3ccccc3C1=N2` (H-TK(Val)P[Arg(NO2)]-{Batracylin(8-NH)}) the IC50 [1] was > 100 µM and the IC50 [2] was > 100 µM.

For `C[C@@H](O)[C@H](N)C(=O)N[C@@H](CCCCN)C(=O)N1CCC[C@H]1C(=O)N[C@@H](CCCNC(=N)N[N+](=O)[O-])C(=O)Nc1ccc2c(c1)CN1C(=O)c3ccccc3C1=N2` (H-TKP[Arg(NO2)]-{Batracylin(8-NH)}), the Activity [5] was “Active”, the “fold change (FC)” value [6] was 3.5 and the Activity [7] was “Active”. For the same compound, the Activity [8] was “inactive”, the IC50 [1] was 77.3 µM and the Activity [9] was “Active”. The Activity [10] was “Active”, the Activity [11] was “Active” and the IC50 [2] was 52.8 µM. The Activity [12] was “Active”, the Activity [13] was “Active” and the Activity [14] was “inactive”.

Compound `C[C@H](N)C(=O)NCCCC[C@H](NC(=O)[C@@H]1CCCN1C(=O)[C@@H](N)CCCNC(=N)N[N+](=O)[O-])C(=O)N[C@H](C(=O)Nc1ccc2c(c1)CN1C(=O)c3ccccc3C1=N2)[C@@H](C)O` (H-[Arg(NO2)]PK(Ala)T-{Batracylin(8-NH)}) has an IC50 [1] of 11.1 µM and an IC50 [2] of 5.6 µM.

For `C[C@@H](O)[C@H](NC(=O)[C@H](CCCCNC(=O)CN)NC(=O)[C@@H]1CCCN1C(=O)[C@@H](N)CCCNC(=N)N[N+](=O)[O-])C(=O)Nc1ccc2c(c1)CN1C(=O)c3ccccc3C1=N2` (H-[Arg(NO2)]PK(Gly)T-{Batracylin(8-NH)}), the IC50 [1] was 28.7 µM and the IC50 [2] was > 100 µM.

For `CC[C@H](C)[C@H](N)C(=O)NCCCC[C@H](NC(=O)[C@@H]1CCCN1C(=O)[C@@H](N)CCCNC(=N)N[N+](=O)[O-])C(=O)N[C@H](C(=O)Nc1ccc2c(c1)CN1C(=O)c3ccccc3C1=N2)[C@@H](C)O` (H-[Arg(NO2)]PK(Ile)T-{Batracylin(8-NH)}), the IC50 [1] was 4.7 µM, the “Ratio IC50” value [15] was “>=10” and the “Ratio IC50” value [16] was “>=10”. For the same compound, the IC50 [2] was 4.8 µM, the inhibition [3] was “Dose-dependent effect” and the inhibition [4] was “inactive”.

In the case of `CC(C)C[C@H](N)C(=O)NCCCC[C@H](NC(=O)[C@@H]1CCCN1C(=O)[C@@H](N)CCCNC(=N)N[N+](=O)[O-])C(=O)N[C@H](C(=O)Nc1ccc2c(c1)CN1C(=O)c3ccccc3C1=N2)[C@@H](C)O` (H-[Arg(NO2)]PK(Leu)T-{Batracylin(8-NH)}), the Activity [5] is reported as “Active”, the Activity [7] is reported as “Active” and the Activity [8] is reported as “inactive”. For the same compound, the IC50 [1] was 5.3 µM, the Activity [9] was “Active” and the Activity [10] was “Active”. The “Ratio IC50” value [15] was “>=10”, the “Ratio IC50” value [16] was “>=10” and the Activity [11] was “Active”. For the same compound, the IC50 [2] was 4 µM, the Activity [12] was “Active” and the inhibition [3] was “Dose-dependent effect”. The inhibition [4] was “inactive”, the Activity [13] was “Active” and the Activity [14] was “inactive”.

For `CC(C)[C@H](N)C(=O)NCCCC[C@H](NC(=O)[C@@H]1CCCN1C(=O)[C@@H](N)CCCNC(=N)N[N+](=O)[O-])C(=O)N[C@H](C(=O)Nc1ccc2c(c1)CN1C(=O)c3ccccc3C1=N2)[C@@H](C)O` (H-[Arg(NO2)]PK(Val)T-{Batracylin(8-NH)}), the IC50 [1] was 11 µM and the IC50 [2] was 13.1 µM.

For `C[C@@H](O)[C@H](NC(=O)[C@H](CCCCN)NC(=O)[C@@H]1CCCN1C(=O)[C@@H](N)CCCNC(=N)N[N+](=O)[O-])C(=O)Nc1ccc2c(c1)CN1C(=O)c3ccccc3C1=N2` (H-[Arg(NO2)]PKT-{Batracylin(8-NH)}), the IC50 [1] was 30.8 µM, the “Ratio IC50” value [15] was 5 and the “Ratio IC50” value [16] was 2. The IC50 [2] was 8.7 µM.

For `Nc1ccc2c(c1)CN1C(=O)c3ccccc3C1=N2` [DANIQUIDONE], the Activity [5] was “Active”, the Activity [7] was “Active” and the Activity [8] was “inactive”. The IC50 [1] was 66.6 µM, the Activity [9] was “Active” and the IC50 [17] was 64.3 µM. The IC50 [18] was 58.4 µM, the Activity [10] was “Active” and the Activity [11] was “Active”. The IC50 [2] was 46.3 µM, the Activity [12] was “Active” and the IC50 [19] was 88.7 µM. The inhibition [3] was “Dose-dependent effect”, the IC50 [20] was 69.9 µM and the inhibition [4] was “inactive”. The Activity [13] was “Active”, the IC50 [21] was 90.2 µM and the IC50 [22] was > 100 µM. For the same compound, the Activity [14] was “inactive”, the IC50 [23] was > 100 µM and the IC50 [24] was > 100 µM.
